These results are taken from paper PMC2362731, “Phase I study of Carzelesin (U-80,244) given (4-weekly) by intravenous bolus schedule” (British Journal of Cancer, 1999).

Data set [1] relates to rabbits. Details: method as in McGovren et al, 1984. The note with it: ref McGovren et al, 1984; cited from earlier work.
The test system of data set [2] is mice. Also noted: method as in McGovren et al, 1984. The following applies: ref McGovren et al, 1984; cited from earlier work.
Data set [3] concerns patients. Details: method as in Sessa et al, 1994. The following applies: day 1 q 4 weeks schedule; ref Sessa et al, 1994; cited from earlier work.
Data set [4] in a line: Plasma pharmacokinetics of Carzelesin and metabolites by HPLC, first course. The class given is in vivo, human. The following applies: for mean concentration of metabolite: highest dose level 300 of Carzelesin. As for the experimental part: Carzelesin is a cyclopropylpyrroloindole analogue which acts as a DNA-sequence-specific alkylating agent. In this phase I study, Carzelesin was given as a 4-weekly 10 min IV infusion to 51 patients with advanced solid tumours. Patients received a median of two courses (range 1–5) at one of nine dose levels: 24, 48, 96, 130, 150, 170, 210, 250 and 300 μg m^−2. According to NCI-CTC criteria, non-haematological toxicities (grade 1/2) included fever, nausea and vomiting, mucositis and anorexia, none of which was clearly dose related. The dose-limiting toxicity was haematological and consisted mainly of neutropenia and to a lesser extent thrombocytopenia. From the dose level 150 μg m^−2, the haematological toxicity (particularly thrombocytopenia) was delayed in onset, prolonged and cumulative in some patients. In several courses, double WBC nadirs occurred. The maximum tolerated dose for a single course was 300 μg m^−2. From the dose level 170 μg m^−2, the intended dose intensity could not be delivered to most patients receiving > 2 courses owing to cumulative haematological toxicity. The dose level with the best dose intensity for multiple courses was 150 μg m^−2. The pharmacokinetics of Carzelesin and its metabolites (U-76,073; U-76,074) have been established in 31 patients during the first course of treatment using a HPLC method. […] The concentration of U-76,074 (active metabolite) extended above the lower limit of quantitation (1 ng ml^−1) for short periods of time and only at the higher dose levels. There was no relationship between neutropenia and the AUC of the prodrug Carzelesin, but the presence of detectable plasma levels of the active metabolite U-76,074 was usually associated with a substantial decrease in ANC values. © 1999 Cancer Research Campaign
Carzelesin (U-80,244, Figure 1A) is a cyclopropylpyrroloindole (CPI) prodrug analogue of CC-1065. […] CPI drugs are a class of compounds with unique DNA interactive properties. These agents fit into the minor groove region of DNA, and the CPI function in the molecule mediates a covalent binding to the N3 position of adenine in A-T rich regions, thus forming DNA adducts in a sequence selective fashion (Hurley et al, 1984; Reynolds et al, 1985). Three new CPIs have now been developed. […] Bizelesin differs from the classical CPI drugs in that it contains two chloromethyl functions, which are both converted (via intramolecular rearrangements) to the CPI alkyl- ating species that interact with DNA. Consequently, this agent is capable of forming DNA interstrand cross-links (Lee et al, 1991). […] Therefore, efforts were directed to modu- late the alkylation rate by the preparation of CPI prodrugs that would require chemical or enzymatic conversion. The activation of Carzelesin is a two-step reaction with hydrolysis of the phenyl- urethane substituent to form the intermediate compound U-76,073, followed by ring closure to form the active product U-76,074 (Figure 1B). […] This higher efficacy may be related to the pharmacologic features of the compound. […] Phase I study of Carzelesin (U-80,244) given (4-weekly) by intravenous bolus schedule A Awada1, CJA Punt2, MJ Piccart1, O Van Tellingen3, L Van Manen2, J Kerger1, Y Groot4, J Wanders4, J Verweij5 and DJTh Wagener2 1Institut Jules Bordet, Bd de Waterloo 125, 1000 Brussels, Belgium; 2University Hospital, Geert Grooteplein 8, Box 9101, 6500 HB Nijmegen, The Netherlands; 3The Netherlands Cancer Institute (Antoni van Leeuwenhoek Huis), Plesmanlaan 121, 1066 CX Amsterdam, The Netherlands; 4European Organization for Research and Treatment of Cancer - New Drug Development Office, PO Box 7057, Amsterdam, The Netherlands; 5Rotterdam Cancer Institute, Groene Hilledijk 301, 3075 EA Rotterdam, The Netherlands; on behalf of the EORTC Early Clinical Studies Group and EORTC NDDO Summary Carzelesin is a cyclopropylpyrroloindole analogue which acts as a DNA-sequence-specific alkylating agent. […]

Data set [5] relates to granulocytes (ANC), white blood cells (WBC), platelets. The data set can be described thus: Pharmacokinetic-pharmacodynamic relationship of bone marrow toxicity (%decr vs AUC). The class given is in vivo. The note with it: plasma level of U-76,074 above 1 ng ml-1. The source says:
Carzelesin (U-80,244, Figure 1A) is a cyclopropylpyrroloindole (CPI) prodrug analogue of CC-1065. […] CPI drugs are a class of compounds with unique DNA interactive properties. These agents fit into the minor groove region of DNA, and the CPI function in the molecule mediates a covalent binding to the N3 position of adenine in A-T rich regions, thus forming DNA adducts in a sequence selective fashion (Hurley et al, 1984; Reynolds et al, 1985). Three new CPIs have now been developed. […] Bizelesin differs from the classical CPI drugs in that it contains two chloromethyl functions, which are both converted (via intramolecular rearrangements) to the CPI alkyl- ating species that interact with DNA. Consequently, this agent is capable of forming DNA interstrand cross-links (Lee et al, 1991). […] Therefore, efforts were directed to modu- late the alkylation rate by the preparation of CPI prodrugs that would require chemical or enzymatic conversion. The activation of Carzelesin is a two-step reaction with hydrolysis of the phenyl- urethane substituent to form the intermediate compound U-76,073, followed by ring closure to form the active product U-76,074 (Figure 1B). […] This higher efficacy may be related to the pharmacologic features of the compound. […] Phase I study of Carzelesin (U-80,244) given (4-weekly) by intravenous bolus schedule A Awada1, CJA Punt2, MJ Piccart1, O Van Tellingen3, L Van Manen2, J Kerger1, Y Groot4, J Wanders4, J Verweij5 and DJTh Wagener2 1Institut Jules Bordet, Bd de Waterloo 125, 1000 Brussels, Belgium; 2University Hospital, Geert Grooteplein 8, Box 9101, 6500 HB Nijmegen, The Netherlands; 3The Netherlands Cancer Institute (Antoni van Leeuwenhoek Huis), Plesmanlaan 121, 1066 CX Amsterdam, The Netherlands; 4European Organization for Research and Treatment of Cancer - New Drug Development Office, PO Box 7057, Amsterdam, The Netherlands; 5Rotterdam Cancer Institute, Groene Hilledijk 301, 3075 EA Rotterdam, The Netherlands; on behalf of the EORTC Early Clinical Studies Group and EORTC NDDO Summary Carzelesin is a cyclopropylpyrroloindole analogue which acts as a DNA-sequence-specific alkylating agent. In this phase I study, Carzelesin was given as a 4-weekly 10 min IV infusion to 51 patients with advanced solid tumours. Patients received a median of two courses (range 1-5) at one of nine dose levels: […]. According to NCI-CTC criteria, non- haematological toxicities (grade 1/2) included fever, nausea and vomiting, mucositis and anorexia, none of which was clearly dose related. […] The concentration of U-76,074 (active metabolite) extended above the lower limit of quantitation (1 ng ml-1) for short periods of time and only at the higher dose levels. […]

On to `COc1c(O)c2c(c3cc(C(=O)N4CCc5c4c(O)c(OC)c4[nH]c(C(=O)N6CC7CC78C6=CC(=O)c6[nH]cc(C)c68)cc54)[nH]c13)CCN2C(N)=O` (centres unmarked) [CC-1065], for which the “toxicity at sub-therapeutic doses” value in data set [1] and in data set [2] was “delayed fatal toxicity” each time.

With `Cn1cc(NC(=O)c2cc(NC(=O)c3cc(NC(=O)c4ccc(N(CCCl)CCCl)cc4)cn3C)cn2C)cc1C(=O)NCCC(=N)N` [Tallimustine], in data set [3], the dose-limiting toxicity result is listed as “brief neutropenia”.

As to `CCN(CC)c1ccc2cc(C(=O)Nc3ccc4[nH]c(C(=O)N5C[C@@H](CCl)c6c5cc(O)c5[nH]cc(C)c65)cc4c3)oc2c1` [U-76,073], the “mean concentration of metabolite” value in data set [4] stood at 18 ng/mL.

`CCN(CC)c1ccc2cc(C(=O)Nc3ccc4[nH]c(C(=O)N5C[C@H]6C[C@@]67C5=CC(=O)c5[nH]cc(C)c57)cc4c3)oc2c1` [U-76,074]: the “decrease in ANC values associated with detectable plasma levels” value in data set [5] is given as “greater than 60%”. In addition, the “plasma level of active metabolite, for short periods of time in most patients” value in data set [4] (Carzelesin dose of 130 or higher) was “exceeded 1 ng ml-1”. In data set [4] (from the Carzelesin dose level 96), the “plasma concentration of active metabolite in the majority of patients” value was 1 to 2 ng/mL. Further, the “mean concentration of metabolite” value in data set [4] is 3 ng/mL.
